Legend:
[1] = xn = mol fraction of the nth substance listed; conditions: 298.15 K, 101 kPa, Liquid, Vibrating tube method
[2] = refractive index (Na D-line) (dimensionless); xn = mol fraction of the nth substance listed; conditions: 298.15 K, 101 kPa, Liquid, Standard Abbe refractometry
[3] = 298.15 K; 101.33 kPa; Liquid; Vibrating tube method
[4] = refractive index (Na D-line) (dimensionless); conditions: 298.15 K; 101.33 kPa; Liquid; Standard Abbe refractometry

CC(C)=O [acetone] + CCCCCC
Conditions	mass density, [1] [kg/m3]	refractive index, [2]
x1 = 0.0504	657.2	1.3709
x1 = 0.0994	659.7	1.3699
x1 = 0.1511	662.9	1.3688
x1 = 0.1999	666.3	1.3679
x1 = 0.2497	670.1	1.3668
x1 = 0.3006	674.4	1.366
x1 = 0.3518	679	1.3651
x1 = 0.4006	683.7	1.3643
x1 = 0.4476	688.7	1.3635
x1 = 0.4995	694.5	1.3627
x1 = 0.5498	700.7	1.3618
x1 = 0.5976	707	1.3611
x1 = 0.6479	714.1	1.3603
x1 = 0.697	721.7	1.3595
x1 = 0.7503	730.5	1.3587
x1 = 0.7998	739.4	1.358
x1 = 0.8499	749.1	1.3572
x1 = 0.8979	759.3	1.3568
x1 = 0.9507	771.7	1.3561

CC(C)=O [acetone]
Conditions	mass density [kg/m3]	refractive index
[3]	784.9	–
[4]	–	1.356

CC(C)=O [acetone] + O
Conditions	mass density, [1] [kg/m3]	refractive index, [2]
x1 = 0.0502	977	1.3422
x1 = 0.0993	959.3	1.3499
x1 = 0.1502	942.2	1.3549
x1 = 0.1996	926.6	1.3583
x1 = 0.2496	911.8	1.3604
x1 = 0.3007	897.6	1.3616
x1 = 0.3507	884.8	1.3621
x1 = 0.4003	873.1	1.3623
x1 = 0.4509	862.1	1.3621
x1 = 0.4992	852.5	1.3618
x1 = 0.5489	843.5	1.3614
x1 = 0.599	835	1.3609
x1 = 0.6506	827	1.3603
x1 = 0.6996	819.9	1.3602
x1 = 0.7014	819.6	1.3597
x1 = 0.7467	813.4	1.3591
x1 = 0.8011	806.2	1.3592
x1 = 0.8015	806.3	1.3583
x1 = 0.846	800.8	1.3577
x1 = 0.8969	794.9	1.3569
x1 = 0.9005	794.5	1.3572
x1 = 0.9451	789.9	1.3564

O [water]
Conditions	refractive index
[4]	1.3325

CCCCCC [hexane]
Conditions	mass density [kg/m3]	refractive index
[3]	655.1	–
[4]	–	1.3724
